The SangsterLogP compilation

| Structure (SMILES) | logP |
| --- | --- |
| COc1ccccc1NC(=O)OCCN(C)C | 1.15 |
| CCCCCCCCOc1ccccc1NC(=O)OCCN(C)C | 2.98 |
| CCCCCCCCCOc1cccc(NC(=O)OCCN(C)C)c1 | 3.21 |
| CCCCCCCOc1cccc(NC(=O)OCCN(C)C)c1 | 2.43 |
| CCCCCCCCOc1ccc(NC(=O)OCCN(C)C)cc1 | 3.26 |
| CCCCCOc1ccccc1NC(=O)OCCN(C)C | 1.83 |
| CCCCCCCCCCOc1ccccc1NC(=O)OCCN(C)C | 3.82 |
| CCCOc1ccccc1NC(=O)OCCN(C)C | 1.24 |
| CCCCCCOc1ccc(NC(=O)OCCN(C)C)cc1 | 2.47 |
| CCCOc1cccc(NC(=O)OCCN(C)C)c1 | 1.04 |
| CCCCCCCCCCOc1ccc(NC(=O)OCCN(C)C)cc1 | 4.02 |
| CCCCOc1ccccc1NC(=O)OCCN(C)C | 1.5 |
| CCCOc1ccc(NC(=O)OCCN(C)C)cc1 | 1.41 |
| CCCCOc1ccc(NC(=O)OCCN(C)C)cc1 | 1.77 |
| CCCCCCOc1cccc(NC(=O)OCCN(C)C)c1 | 2.01 |
| CCCCCOc1cccc(NC(=O)OCCN(C)C)c1 | 1.72 |
| CCOc1ccccc1NC(=O)OCCN(C)C | 1.15 |
| CCCCCOc1ccc(NC(=O)OCCN(C)C)cc1 | 2.11 |
| CCOc1cccc(NC(=O)OCCN(C)C)c1 | 0.8 |
| CCCCOc1cccc(NC(=O)OCCN(C)C)c1 | 1.35 |
| CCCCCCCCOc1cccc(NC(=O)OCCN(C)C)c1 | 2.87 |
| CCOc1ccc(NC(=O)OCCN(C)C)cc1 | 1.14 |
| CCCCCCCOc1ccc(NC(=O)OCCN(C)C)cc1 | 2.93 |
| CCCCCCCCCOc1ccccc1NC(=O)OCCN(C)C | 3.35 |
| CCCCCCOc1ccccc1NC(=O)OCCN(C)C | 2.13 |
| CCCCCCCOc1ccccc1NC(=O)OCCN(C)C | 2.5 |
| COc1ccc(NC(=O)OCCN(C)C)cc1 | 0.97 |
